The record followed here is patent publication US11542274B1, “Therapeutic compounds and methods of use thereof” (AGENCY FOR SCIENCE, TECHNOLOGY AND RESEARCH (A*STAR), priority 2019, dated 2023).

The assay relates to RAMOS cells (Burkitt's lymphoma cell line). The assay can be described thus: Anti-proliferation assay (CellTiter-Glo). It is filed as cell-based. As to conditions: Homo sapiens, 72 h, 3 days. The procedure:
In cell growth experiments, cells were seeded in 96-well cell culture plates at a density of 3000 of RAMOS cells/well in 100 μL of culture medium. 100 μL of the diluted solution containing the tested compound was added to the appropriate wells of the cell plate. After addition of the tested compound, the cells were incubated at 37° C. in an atmosphere of 5% CO2 for 3 days. CellTiter-Glo (CTG) reagent from the Promega CellTiter-Glo Luminescent Cell Viability Assay kit (#G7572) was added into an OptiPlate 96 (Perkin Elmer, White, Opaque, #6005299) in the dark, incubated for at least 2 hrs, and luminescence signal was read using Tecan Safire II Multi-Mode Plate Reader. The GI50 was calculated by nonlinear regression analysis using GraphPad Prism5 software.
GI50 is the concentration for 50% of maximal inhibition of cell proliferation.

Regarding `Cc1sc2c(c1C)C(c1ccc(Cl)cc1)=N[C@@H](CC(=O)NC1CCN(c3ccc(-c4ccc5c(c4)CC(=O)N5)cn3)CC1)c1nnc(C)n1-2` [Compound 125, (S)-2-(4-(4-chlorophenyl)-2,3,9-trimethyl-6H-thieno[3,2-f][1,2,4]triazolo[4,3-a][1,4]diazepin-6-yl)-N-(1-(5-(2-oxoindolin-5-yl)pyridin-2-yl)piperidin-4-yl)acetamide], the 50% growth inhibitory concentration (GI50) fell in the range of 0.001 to 0.1 µM. Take `Cc1sc2c(c1C)C(c1ccc(Cl)cc1)=N[C@@H](CC(=O)NCCCCCNc1ccc(-c3ccc4c(c3)CC(=O)N4)cn1)c1nnc(C)n1-2` [Compound 126, (S)-2-(4-(4-chlorophenyl)-2,3,9-trimethyl-6H-thieno[3,2-f][1,2,4]triazolo[4,3-a][1,4]diazepin-6-yl)-N-(5-((5-(2-oxoindolin-5-yl)pyridin-2-yl)amino)pentyl)acetamide]: the concentration for 50% growth inhibition (GI50) was in the range of 0.001 to 0.1 µM. Next, `Cc1sc2c(c1C)C(c1ccc(Cl)cc1)=N[C@@H](CC(=O)NCC1CCN(c3ccc(-c4ccc5c(c4)CC(=O)N5)cn3)CC1)c1nnc(C)n1-2` [Compound 127, (S)-2-(4-(4-chlorophenyl)-2,3,9-trimethyl-6H-thieno[3,2-f][1,2,4]triazolo[4,3-a][1,4]diazepin-6-yl)-N-((1-(5-(2-oxoindolin-5-yl)pyridin-2-yl)piperidin-4-yl)methyl)acetamide]: 0.1 to 1 µM. With `Cc1sc2c(c1C)C(c1ccc(Cl)cc1)=N[C@@H](CC(=O)NC1CN(c3ccc(-c4ccc5c(c4)CC(=O)N5)cn3)C1)c1nnc(C)n1-2` [Compound 128, (S)-2-(4-(4-chlorophenyl)-2,3,9-trimethyl-6H-thieno[3,2-f][1,2,4]triazolo[4,3-a][1,4]diazepin-6-yl)-N-(1-(5-(2-oxoindolin-5-yl)pyridin-2-yl)azetidin-3-yl)acetamide], the GI50 fell in the range of 0.1 to 1 µM.

The compound `Cc1sc2c(c1C)C(c1ccc(Cl)cc1)=N[C@@H](CC(=O)NC1CCN(c3ccc(-c4ccc5c(c4)CC(=O)N5)cn3)C1)c1nnc(C)n1-2` (stereo partly drawn) [Compound 129, 2-((S)-4-(4-chlorophenyl)-2,3,9-trimethyl-6H-thieno[3,2-f][1,2,4]triazolo[4,3-a][1,4]diazepin-6-yl)-N-(1-(5-(2-oxoindolin-5-yl)pyridin-2-yl)pyrrolidin-3-yl)acetamide] registered a GI50 of 0.001 to 0.1 µM. With `Cc1sc2c(c1C)C(c1ccc(Cl)cc1)=N[C@@H](CC(=O)NCCOCCC(=O)N1CCN(c3ccc(-c4ccc5c(c4)CC(=O)N5)cn3)CC1)c1nnc(C)n1-2` [Compound 130, (S)-2-(4-(4-chlorophenyl)-2,3,9-trimethyl-6H-thieno[3,2-f][1,2,4]triazolo[4,3-a][1,4]diazepin-6-yl)-N-(2-(3-oxo-3-(4-(5-(2-oxoindolin-5-yl)pyridin-2-yl)piperazin-1-yl)propoxy)ethyl)acetamide], the GI50 is 0.001 to 0.1 µM. For the compound `Cc1sc2c(c1C)C(c1ccc(Cl)cc1)=N[C@@H](CC(=O)Nc1ccc(OCCOCCOCCOCCOCCNc3ccc(-c4ccc5c(c4)CC(=O)N5)cn3)cc1)c1nnc(C)n1-2` [Compound 131, (S)-2-(4-(4-chlorophenyl)-2,3,9-trimethyl-6H-thieno[3,2-f][1,2,4]triazolo[4,3-a][1,4]diazepin-6-yl)-N-(4-((14-((5-(2-oxoindolin-5-yl)pyridin-2-yl)amino)-3,6,9,12-tetraoxatetradecyl)oxy)phenyl)acetamide], the GI50 was 0.001 to 0.1 µM. Compound `Cc1sc2c(c1C)C(c1ccc(Cl)cc1)=N[C@@H](CC(=O)NCCOCCOc1ccc(-c3ccc4c(c3)CC(=O)N4)cn1)c1nnc(C)n1-2` [Compound 132, (S)-2-(4-(4-chlorophenyl)-2,3,9-trimethyl-6H-thieno[3,2-f][1,2,4]triazolo[4,3-a][1,4]diazepin-6-yl)-N-(2-(2-((5-(2-oxoindolin-5-yl)pyridin-2-yl)oxy)ethoxy)ethyl)acetamide] had a GI50 of 0.001 to 0.1 µM.

`Cc1sc2c(c1C)C(c1ccc(Cl)cc1)=N[C@@H](CC(=O)NCCOCCNc1ncc(-c3ccc4c(c3)CC(=O)N4)cn1)c1nnc(C)n1-2` [Compound 133, (S)-2-(4-(4-chlorophenyl)-2,3,9-trimethyl-6H-thieno[3,2-f][1,2,4]triazolo[4,3-a][1,4]diazepin-6-yl)-N-(2-(2-((5-(2-oxoindolin-5-yl)pyrimidin-2-yl)amino)ethoxy)ethyl)acetamide] showed a GI50 of 0.001 to 0.1 µM. In the case of `Cc1sc2c(c1C)C(c1ccc(Cl)cc1)=N[C@@H](CC(=O)NCCC1CCN(c3ccc(-c4ccc5c(c4)CC(=O)N5)cn3)CC1)c1nnc(C)n1-2` [Compound 134, (S)-2-(4-(4-chlorophenyl)-2,3,9-trimethyl-6H-thieno[3,2-f][1,2,4]triazolo[4,3-a][1,4]diazepin-6-yl)-N-(2-(1-(5-(2-oxoindolin-5-yl)pyridin-2-yl)piperidin-4-yl)ethyl)acetamide], the concentration for 50% growth inhibition (GI50) was in the range of 0.001 to 0.1 µM.

`Cc1sc2c(c1C)C(c1ccc(Cl)cc1)=N[C@@H](CC(=O)NCCOCCNc1ncccc1-c1ccc3c(c1)CC(=O)N3)c1nnc(C)n1-2` [Compound 135, (S)-2-(4-(4-chlorophenyl)-2,3,9-trimethyl-6H-thieno[3,2-f][1,2,4]triazolo[4,3-a][1,4]diazepin-6-yl)-N-(2-(2-((3-(2-oxoindolin-5-yl)pyridin-2-yl)amino)ethoxy)ethyl)acetamide] displayed a GI50 of 0.001 to 0.1 µM. `Cc1sc2c(c1C)C(c1ccc(Cl)cc1)=N[C@@H](CC(=O)NC1CCN(c3ncccc3-c3ccc4c(c3)CC(=O)N4)CC1)c1nnc(C)n1-2` [Compound 136, (S)-2-(4-(4-chlorophenyl)-2,3,9-trimethyl-6H-thieno[3,2-f][1,2,4]triazolo[4,3-a][1,4]diazepin-6-yl)-N-(1-(3-(2-oxoindolin-5-yl)pyridin-2-yl)piperidin-4-yl)acetamide] registered a 50% growth inhibitory concentration (GI50) of 0.001 to 0.1 µM. In turn, `Cc1sc2c(c1C)C(c1ccc(Cl)cc1)=N[C@@H](CC(=O)N1CCC3(CCN(c4ncccc4-c4ccc5c(c4)CC(=O)N5)C3)C1)c1nnc(C)n1-2` (stereo partly shown) [Compound 137] displayed a GI50 of 0.1 to 1 µM. With `Cc1sc2c(c1C)C(c1ccc(Cl)cc1)=N[C@@H](CC(=O)NC1CC3(C1)CC(Nc1ncccc1-c1ccc4c(c1)CC(=O)N4)C3)c1nnc(C)n1-2` (stereo partly drawn) [Compound 138, (S)-2-(4-(4-chlorophenyl)-2,3,9-trimethyl-6H-thieno[3,2-f][1,2,4]triazolo[4,3-a][1,4]diazepin-6-yl)-N-(6-((3-(2-oxoindolin-5-yl)pyridin-2-yl)amino)spiro[3.3]heptan-2-yl)acetamide], the concentration for 50% growth inhibition (GI50) lay within 0.001 to 0.1 µM. For `Cc1sc2c(c1C)C(c1ccc(Cl)cc1)=N[C@@H](CC(=O)NCCCCNc1ncccc1-c1ccc3c(c1)CC(=O)N3)c1nnc(C)n1-2` [Compound 139, (S)-2-(4-(4-chlorophenyl)-2,3,9-trimethyl-6H-thieno[3,2-f][1,2,4]triazolo[4,3-a][1,4]diazepin-6-yl)-N-(4-((3-(2-oxoindolin-5-yl)pyridin-2-yl)amino)butyl)acetamide], the GI50 is 0.1 to 1 µM. The value for `Cc1sc2c(c1C)C(c1ccc(Cl)cc1)=N[C@@H](CC(=O)Nc1ccc(OCCOCCNc3ncccc3-c3ccc4c(c3)CC(=O)N4)cc1)c1nnc(C)n1-2` [Compound 140, (S)-2-(4-(4-chlorophenyl)-2,3,9-trimethyl-6H-thieno[3,2-f][1,2,4]triazolo[4,3-a][1,4]diazepin-6-yl)-N-(4-(2-(2-((3-(2-oxoindolin-5-yl)pyridin-2-yl)amino)ethoxy)ethoxy)phenyl)acetamide] was 0.1 to 1 µM.

What is called GI50 is the concentration giving 50% growth inhibition. Read a high GI50 as less potent growth inhibition.
